In US20240358692A1, “TREATMENT OF SCLERODERMA” (Aisa Pharma, Inc., priority 2023, published 2024):

What was measured:
[1] = test system: participants with SSc-RP; experiment: Average duration of weekly RP attacks (minutes), patient diary; format: in vivo, human; settings: Pooled Cilnidipine
Text: The absolute change in average duration of weekly RP attacks from baseline to the end of each dosing period was and will be a secondary outcome variable. The sponsor-developed participant-informed diary was and will be used to record data. Average duration of weekly RP attacks is defined as the total duration of RP attacks divided by total number of RP attacks within the last 7 days of each dosing period. Total duration of RP attacks during the last 7 days of screening period divided by the total number of RP attacks will be used as baseline for the analysis of all periods. The variable will be calculated similar to frequency data as before.

[2] = test system: participants with SSc-RP; experiment: SHAQ - Visual Analog Scale - Intestinal Problems; format: in vivo, human; set-up: Visual Analog Scale-Intestinal Problems, In Clinic Visit (Day 12), Mean / Visual Analog Scale-Intestinal Problems, In Clinic Visit (Day 12), Median / Visual Analog Scale-Intestinal Problems, Change from Baseline, Mean / Visual Analog Scale-Intestinal Problems, Change from Baseline, Median / SHAQ Visual Analogue Scale - Intestinal Problems, In-Clinic Visit (Day 12), Median: scale not given here
Text: The standard, validated, patient reported outcome measures tool for SSc patients, the Scleroderma Health Assessment Questionnaire (SHAQ), will be used to assess the participant qualify of life. Details are attached in the Appendix. The participant quality of life will be scored, and a disability index calculated for each questionnaire completed by the patient at Screening and each in-clinic visit. The absolute change in participant quality of life from baseline to the end of each dosing period will be calculated similar to frequency data as before.
The standard, validated, patient reported outcome measures tool for SSc patients, the SHAQ, was collected at the time points specified in the study schedules (FIG. 2 and FIGS. 4A and 4B) to assess the participant's quality of life. The SHAQ included a Raynaud's VAS that will also be reported separately.

[3] = ITT Population - Part A, last 7 days of dosing period
[4] = by Baseline RCS, first RCS subgroup of table (not named), ITT Population - Part A
[5] = by Baseline RCS, first subgroup of table, ITT Population - Part A
[6] = excluding outliers, 1st baseline RCS subgroup, ITT Part A
[7] = Any Cilnidipine (N = 17), Day 12, PP Population, Part A
[8] = Cilnidipine 10 mg, SSc patients, PP, Part A
[9] = Cilnidipine 20 mg, SSc patients, PP, Part A
[10] = Modified ITT Population-Part A, Day 12, dose cilnidipine 20 mg, tadalafil 5 mg, alone or combined as labelled
[11] = Modified ITT Population-Part A, dose cilnidipine 10 mg, tadalafil 5 mg, alone or combined as labelled
[12] = Pooled Cilnidipine (N = 8), Day 12, PP Population, Part A
[13] = pooled Cilnidipine 10 mg and Cilnidipine 10 mg + Tadalafil 5 mg
[14] = pooled Cilnidipine 20 mg and Cilnidipine 20 mg + Tadalafil 5 mg
[15] = pooled cilnidipine 10 mg and 20 mg arms (combination: + tadalafil 5 mg)

COCCOC(=O)C1=C(C)NC(C)=C(C(=O)OC/C=C/c2ccccc2)C1c1cccc([N+](=O)[O-])c1 (centres unmarked) [Cilnidipine]
Average Duration of Weekly Symptomatic RP Attacks Percent Change from Baseline, Median ([1]; ITT Part A): −34.60%
Average Duration of Weekly RP Attacks (All Attacks), Change from Baseline, Mean ([1]; ITT Population - Part A): -3.55 min
Average Duration of Weekly RP Attacks (All Attacks), Change from Baseline, Median ([1]; ITT Population - Part A): -7.63 min
Average Duration of Weekly RP Attacks (All Attacks), Percent Change from Baseline, Mean ([1]; ITT Population - Part A): −23.71%
Average Duration of Weekly RP Attacks (All Attacks), Percent Change from Baseline, Median ([1]; ITT Population - Part A): −21.20%
Average Duration of Weekly RP Attacks (All Attacks), Mean [1, 3]: 21.66 min
Average Duration of Weekly RP Attacks (All Attacks), Median [1, 3]: 30.45 min
Average Duration of weekly symptomatic RP attacks, Mean [1, 4]: 21.70 min
Average Duration of weekly symptomatic RP attacks, Median [1, 4]: 30.45 min
Change from Baseline in average duration of weekly symptomatic RP attacks, Mean [1, 4]: -7.67 min
Change from Baseline in average duration of weekly symptomatic RP attacks, Median [1, 4]: -10.33 min
Percent Change from Baseline in average duration of weekly symptomatic RP attacks, Mean [1, 4]: −32.23%
Percent Change from Baseline in average duration of weekly symptomatic RP attacks, Median [1, 4]: −34.60%
Average Duration of Weekly RP Attacks (All Attacks), Mean [1, 5]: 21.66 min
Average Duration of Weekly RP Attacks (All Attacks), Median [1, 5]: 30.45 min
Average duration of weekly RP attacks, Change from Baseline, Median [1, 6]: -7.63 min
Average duration of weekly RP attacks, Percent Change from Baseline, Mean [1, 6]: −23.71%
SHAQ Visual Analogue Scale - Intestinal Problems, Change from Baseline, Mean (SD) [2, 7]: −0.556 (1.7427)
SHAQ Visual Analogue Scale - Intestinal Problems, Change from Baseline, Median [2, 7]: −0.100
SHAQ Visual Analogue Scale - Intestinal Problems, In-Clinic Visit (Day 12), Mean (SD) [2, 7]: 1.121 (1.4119)
SHAQ Visual Analogue Scale - Intestinal Problems, In-Clinic Visit (Day 12), Median [2, 7]: 0.600
SHAQ Visual Analogue Scale - Intestinal Problems, Percent Change from Baseline, Mean (SD) [2, 7]: −18.65 (93.767) %
SHAQ Visual Analogue Scale - Intestinal Problems, Percent Change from Baseline, Median [2, 7]: −54.13%
SHAQ VAS Intestinal Problems, Change from Baseline, Max [2, 8]: 0.00
SHAQ VAS Intestinal Problems, Change from Baseline, Median [2, 8]: −1.550
SHAQ VAS Intestinal Problems, Change from Baseline, Min [2, 8]: −4.40,
SHAQ VAS Intestinal Problems, Change from Baseline, Q1 [2, 8]: −3.700,
SHAQ VAS Intestinal Problems, Change from Baseline, Q3 [2, 8]: −0.050
SHAQ VAS Intestinal Problems, Day 12, Max [2, 8]: 3.80
SHAQ VAS Intestinal Problems, Day 12, Mean [2, 8]: 1.100
SHAQ VAS Intestinal Problems, Day 12, Median [2, 8]: 0.300
SHAQ VAS Intestinal Problems, Day 12, Min [2, 8]: 0.00,
SHAQ VAS Intestinal Problems, Day 12, Q1 [2, 8]: 0.000,
SHAQ VAS Intestinal Problems, Day 12, Q3 [2, 8]: 2.200
SHAQ VAS Intestinal Problems, Percent Change from Baseline, Max [2, 8]: −44.1
SHAQ VAS Intestinal Problems, Percent Change from Baseline, Median [2, 8]: −88.00
SHAQ VAS Intestinal Problems, Percent Change from Baseline, Min [2, 8]: −100.0,
SHAQ VAS Intestinal Problems, Percent Change from Baseline, Q1 [2, 8]: −100.00,
SHAQ VAS Intestinal Problems, Percent Change from Baseline, Q3 [2, 8]: −44.12
SHAQ VAS Intestinal Problems, Change from Baseline, Max [2, 9]: 0.60
SHAQ VAS Intestinal Problems, Change from Baseline, Mean [2, 9]: 0.150
SHAQ VAS Intestinal Problems, Change from Baseline, Median [2, 9]: 0.150
SHAQ VAS Intestinal Problems, Change from Baseline, Min [2, 9]: −0.30,
SHAQ VAS Intestinal Problems, Change from Baseline, Q1 [2, 9]: −0.150,
SHAQ VAS Intestinal Problems, Change from Baseline, Q3 [2, 9]: 0.450
SHAQ VAS Intestinal Problems, Day 12, Max [2, 9]: 2.10
SHAQ VAS Intestinal Problems, Day 12, Mean [2, 9]: 0.850
SHAQ VAS Intestinal Problems, Day 12, Median [2, 9]: 0.650
SHAQ VAS Intestinal Problems, Day 12, Min [2, 9]: 0.00,
SHAQ VAS Intestinal Problems, Day 12, Q1 [2, 9]: 0.000,
SHAQ VAS Intestinal Problems, Day 12, Q3 [2, 9]: 1.700
SHAQ VAS Intestinal Problems, Percent Change from Baseline, Max [2, 9]: 40.0
SHAQ VAS Intestinal Problems, Percent Change from Baseline, Mean [2, 9]: −10.00
SHAQ VAS Intestinal Problems, Percent Change from Baseline, Min [2, 9]: −100.0,
SHAQ VAS Intestinal Problems, Percent Change from Baseline, Q1 [2, 9]: −100.00,
SHAQ VAS Intestinal Problems, Percent Change from Baseline, Q3 [2, 9]: 40.00
SHAQ Intestinal Difficulty, mean % change ([2]; Cilnidipine, pooled, n = 7 (in column Cilnidipine 20 mg), minus = improvement, Table A*): −45% (pooled,
Visual Analog Scale-Intestinal Problems, Percent Change from Baseline, Median ([2]; Modified ITT Population-Part A, Day 12, dose cilnidipine 10 mg, tadalafil 5 mg, alone or combined as labelled): −88.00%
Visual Analog Scale-Intestinal Problems, Change from Baseline, Mean [2, 10]: 0.300
Visual Analog Scale-Intestinal Problems, Change from Baseline, Median [2, 10]: 0.300
Visual Analog Scale-Intestinal Problems, Percent Change from Baseline, Mean [2, 10]: 35.00%
Visual Analog Scale-Intestinal Problems, Percent Change from Baseline, Median [2, 10]: 35.00%
Visual Analog Scale-Intestinal Problems, In Clinic Visit (Day 12), Mean [2, 11]: 1.100
Visual Analog Scale-Intestinal Problems, In Clinic Visit (Day 12), Median [2, 11]: 0.300
Visual Analog Scale-Intestinal Problems, In Clinic Visit (Day 12), Median ([2]; Modified ITT Population-Part A, dose cilnidipine 20 mg, tadalafil 5 mg, alone or combined as labelled): 1.300
SHAQ Visual Analogue Scale - Intestinal Problems, In-Clinic Visit (Day 12), Median ([2]; Pooled Cilnidipine 10 mg and Cilnidipine 10 mg + Tadalafil 5 mg (N = 9), Day 12, PP Population, Part A): 0.700
SHAQ Visual Analogue Scale - Intestinal Problems, In-Clinic Visit (Day 12), Median ([2]; Pooled Cilnidipine 20 mg and Cilnidipine 20 mg + Tadalafil 5 mg (N = 8), Day 12, PP Population, Part A): 0.100
SHAQ Visual Analogue Scale - Intestinal Problems, Change from Baseline, Mean (SD) [2, 12]: −0.863 (1.8110)
SHAQ Visual Analogue Scale - Intestinal Problems, In-Clinic Visit (Day 12), Mean (SD) [2, 12]: 0.975 (1.3781)
SHAQ Visual Analogue Scale - Intestinal Problems, Percent Change from Baseline, Mean (SD) [2, 12]: −43.69 (64.404) %
% Δ from baseline, Intestinal Problems mean ([2]; Pooled cilnidipine (n=5)): −32.4%
VAS Intestinal Problems Change from Baseline Max [2, 13]: 1.00
VAS Intestinal Problems Change from Baseline Mean [2, 13]: −1.228
VAS Intestinal Problems Change from Baseline Median [2, 13]: −0.250
VAS Intestinal Problems Change from Baseline Min [2, 13]: −4.40,
VAS Intestinal Problems Change from Baseline Q1 [2, 13]: −3.000,
VAS Intestinal Problems Change from Baseline Q3 [2, 13]: 0.000
VAS Intestinal Problems Day 12 Max [2, 13]: 3.80
VAS Intestinal Problems Day 12 Median [2, 13]: 0.700
VAS Intestinal Problems Day 12 Min [2, 13]: 0.00,
VAS Intestinal Problems Day 12 Q1 [2, 13]: 0.000,
VAS Intestinal Problems Day 12 Q3 [2, 13]: 1.900
VAS Intestinal Problems Percent Change from Baseline Max [2, 13]: 142.9%
VAS Intestinal Problems Percent Change from Baseline Mean [2, 13]: −27.93%
VAS Intestinal Problems Percent Change from Baseline Min [2, 13]: −100.0, %
VAS Intestinal Problems Percent Change from Baseline Q1 [2, 13]: −94.00, %
VAS Intestinal Problems Percent Change from Baseline Q3 [2, 13]: 15.00%
VAS Intestinal Problems Change from Baseline Max [2, 14]: 2.90
VAS Intestinal Problems Change from Baseline Median [2, 14]: 0.000
VAS Intestinal Problems Change from Baseline Min [2, 14]: −1.60,
VAS Intestinal Problems Change from Baseline Q1 [2, 14]: −0.300,
VAS Intestinal Problems Change from Baseline Q3 [2, 14]: 0.600
VAS Intestinal Problems Day 12 Max [2, 14]: 4.50
VAS Intestinal Problems Day 12 Median [2, 14]: 0.200
VAS Intestinal Problems Day 12 Min [2, 14]: 0.00,
VAS Intestinal Problems Day 12 Q1 [2, 14]: 0.000,
VAS Intestinal Problems Day 12 Q3 [2, 14]: 2.100
VAS Intestinal Problems Percent Change from Baseline Max [2, 14]: 181.3%
VAS Intestinal Problems Percent Change from Baseline Median [2, 14]: 30.00%
VAS Intestinal Problems Percent Change from Baseline Min [2, 14]: −100.0, %
VAS Intestinal Problems Percent Change from Baseline Q1 [2, 14]: −88.89, %
VAS Intestinal Problems Percent Change from Baseline Q3 [2, 14]: 40.00%
VAS Intestinal Problems Change from Baseline Max [2, 15]: 0.60
VAS Intestinal Problems Change from Baseline Median [2, 15]: 0.000
VAS Intestinal Problems Change from Baseline Min [2, 15]: −4.40,
VAS Intestinal Problems Change from Baseline Q1 [2, 15]: −3.000,
VAS Intestinal Problems Change from Baseline Q3 [2, 15]: 0.300
VAS Intestinal Problems Day 12 Max [2, 15]: 3.80
VAS Intestinal Problems Day 12 Median [2, 15]: 0.600
VAS Intestinal Problems Day 12 Min [2, 15]: 0.00,
VAS Intestinal Problems Day 12 Q1 [2, 15]: 0.000,
VAS Intestinal Problems Day 12 Q3 [2, 15]: 2.100
VAS Intestinal Problems Percent Change from Baseline Max [2, 15]: 40.0%
VAS Intestinal Problems Percent Change from Baseline Min [2, 15]: −100.0, %
VAS Intestinal Problems Percent Change from Baseline Q1 [2, 15]: −88.00, %
VAS Intestinal Problems Percent Change from Baseline Q3 [2, 15]: 30.00%
